Laboratory results from ChEMBL document CHEMBL4190383, “Hit discovery of Mycobacterium tuberculosis inosine 5'-monophosphate dehydrogenase, GuaB2, inhibitors” (Bioorg Med Chem Lett, 2018).
In brackets after ≈: the same amount, converted by molar mass. Activity calls are given as the source filed them. The calls are words filed in the database; no cut-off is given here.

How the values were obtained:
[1] = Inhibition of Mycobacterium tuberculosis GuaB2
[2] = molecular target: Inosine-5'-monophosphate dehydrogenase 2 (Homo sapiens) (UniProt P12268); test: Inhibition of human IMPDH2 at 10 uM
Inosine-5'-monophosphate dehydrogenase 2 (Homo sapiens), sequence (P12268 2-514 limits assumed): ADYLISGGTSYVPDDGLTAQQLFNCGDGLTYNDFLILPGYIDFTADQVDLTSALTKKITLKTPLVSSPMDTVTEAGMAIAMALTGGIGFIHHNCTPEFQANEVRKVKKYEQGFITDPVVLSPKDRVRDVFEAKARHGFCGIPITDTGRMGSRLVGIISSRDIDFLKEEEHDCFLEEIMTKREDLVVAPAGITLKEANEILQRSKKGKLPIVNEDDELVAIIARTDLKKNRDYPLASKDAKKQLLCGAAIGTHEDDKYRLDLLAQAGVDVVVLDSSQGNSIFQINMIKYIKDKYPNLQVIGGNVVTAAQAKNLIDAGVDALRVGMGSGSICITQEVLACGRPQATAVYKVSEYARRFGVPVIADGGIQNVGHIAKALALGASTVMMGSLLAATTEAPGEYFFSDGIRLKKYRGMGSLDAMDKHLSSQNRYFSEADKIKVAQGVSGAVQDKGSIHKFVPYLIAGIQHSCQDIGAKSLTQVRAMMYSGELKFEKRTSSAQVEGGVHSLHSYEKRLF

Pseudomonas aeruginosa = test: Growth inhibition of Pseudomonas aeruginosa at 32 ug/ml; type: functional; conditions: read-out: GI
[3] = tested on: Mycobacterium tuberculosis; test: Inhibition of Mycobacterium tuberculosis GuaB2 at 50 uM
[4] = tested on: Mycobacterium tuberculosis; test: Antimicrobial activity against Mycobacterium tuberculosis H37Rv in presence of 0.31 ng/ml anhydrotetracycline-induced guaB2 gene silencing by alamar blue assay; type: functional
Acinetobacter baumannii = test: Growth inhibition of Acinetobacter baumannii at 32 ug/ml; type: functional; conditions: read-out: GI
Staphylococcus aureus = test: Growth inhibition of methicillin-resistant Staphylococcus aureus at 32 ug/ml; type: functional; conditions: read-out: GI
Escherichia coli = test: Growth inhibition of Escherichia coli at 32 ug/ml; type: functional; conditions: read-out: GI
[5] = Octanol/water partition coefficient , logP of the compound; type: physicochemical
[6] = tested on: Mycobacterium tuberculosis; test: Antimicrobial activity against Mycobacterium tuberculosis H37Rv in presence of 0.15 ng/ml anhydrotetracycline-induced guaB2 gene silencing by alamar blue assay; type: functional
[7] = tested on: Mycobacterium tuberculosis; test: Antimicrobial activity against Mycobacterium tuberculosis SRMV2.6 H37Rv by alamar blue assay; type: functional
[8] = tested on: Mycobacterium tuberculosis; test: Antimicrobial activity against Mycobacterium tuberculosis H37Rv in presence of 0.08 to 5 ng/ml anhydrotetracycline-induced guaB2 gene silencing by alamar blue assay; type: functional, organism-based
Cryptococcus neoformans = test: Growth inhibition of Cryptococcus neoformans var. grubii at 32 ug/ml; type: functional; conditions: read-out: GI
Klebsiella pneumoniae = test: Growth inhibition of Klebsiella pneumoniae at 32 ug/ml; type: functional; conditions: read-out: GI
[9] = tested on: Mycobacterium tuberculosis; test: Antimicrobial activity against Mycobacterium tuberculosis H37Rv by alamar blue assay; type: functional
Candida albicans = test: Growth inhibition of Candida albicans at 32 ug/ml; type: functional; conditions: read-out: GI

Work on `O=C(Cc1ccc(F)c2ccccc12)Nc1ccc2c(c1)COC2=O` yielded an IC50 [1] of 3.04 µM, an inhibition [2] of 0.1% and an inhibition of growth at 32 µg/mL (Pseudomonas aeruginosa) of -3.45%. The inhibition [3] was 99.9%, the MIC [4] was 12.5 µM and the inhibition of growth at 32 µg/mL (Acinetobacter baumannii) was -2.02%. For the same compound, the inhibition of growth at 32 µg/mL (Staphylococcus aureus) was 2.37%, the inhibition of growth at 32 µg/mL (Escherichia coli) was -4.49% and the logP [5] was 2.5 to 3.5. For the same compound, the MIC [6] was 12.5 µM, the MIC90 [7] was 100 µM (≈ 33.5 µg/mL) and the Activity [8] was “Active”. For the same compound, the inhibition of growth at 32 µg/mL (Cryptococcus neoformans) was -49.8%, the inhibition of growth at 32 µg/mL (Klebsiella pneumoniae) was 13.4% and the MIC90 [9] was 100 µM (≈ 33.5 µg/mL). The inhibition of growth at 32 µg/mL (Candida albicans) was 5.47%.
